Earlier results as cited in US7329656B2, “Arylthiobenzylpiperidine derivatives” (H. Lundbeck A/S, priority 2004, dated 2008).
Read-outs that look alike come from different tables or passages of the source.

Columns and labels:
rat [1] = conditions: rat social interaction
rat [2] = conditions: rat forced-swim
guinea pig = guinea pig maternal-separation vocalization

## COCC1=C(C(=O)OC)[C@H](c2ccc(F)c(F)c2)N(C(=O)NCCCN2CCC(c3cccc(NC(C)=O)c3)CC2)C(=O)N1 [SNAP-7941]
Rat [1]
  behavioral profile in model of depression and/or anxiety: profile similar to clinically used anti-depressants and anxiolytics
Rat [2]
  behavioral profile in model of depression and/or anxiety: profile similar to clinically used anti-depressants and anxiolytics
Guinea pig
  behavioral profile in model of depression and/or anxiety: profile similar to clinically used anti-depressants and anxiolytics
